Reference: ChEMBL document CHEMBL3879914, “Inhibitors of central nervous system vasoactive inhibitory peptide receptor 2” (2014)
Calls of active or inactive are those of the source. The calls are words filed in the database; no cut-off is given here.

Columns and labels:
[1] = biological target: T1, Vasoactive intestinal polypeptide receptor 2 (Homo sapiens, UniProt P41587); experiment: (§1) Antagonist activity at recombinant human N-terminal signal peptide/FLAG epitope-tagged Rluc8-fused VIPR2 expressed in HEK293 cells assessed as inhibition of VIP-induced human mVenus-beta-arrestin2 binding preincubated for 5 mins with luciferin, coelenterazine H followed by VIP addition measured after 5 mins by BRET assay; format: cell-based
T1 sequence (P41587 whole entry): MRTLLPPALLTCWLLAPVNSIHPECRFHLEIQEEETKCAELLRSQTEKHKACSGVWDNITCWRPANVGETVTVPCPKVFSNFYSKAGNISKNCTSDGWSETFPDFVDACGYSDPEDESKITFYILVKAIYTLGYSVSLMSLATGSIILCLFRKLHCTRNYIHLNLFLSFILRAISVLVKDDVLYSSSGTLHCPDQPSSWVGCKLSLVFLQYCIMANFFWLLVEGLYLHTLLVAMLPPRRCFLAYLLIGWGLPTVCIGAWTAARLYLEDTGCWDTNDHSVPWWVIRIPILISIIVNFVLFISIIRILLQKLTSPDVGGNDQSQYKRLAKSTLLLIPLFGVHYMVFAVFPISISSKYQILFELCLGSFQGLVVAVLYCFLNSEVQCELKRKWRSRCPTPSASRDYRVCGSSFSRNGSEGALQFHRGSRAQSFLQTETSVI

[2] = biological target: T2, Vasoactive intestinal polypeptide receptor 2 (Homo sapiens) (UniProt P41587); experiment: as §1, with “binding at 0.5 uM” for “binding”, “assay relative to control” for “assay”; format: cell-based
T2 sequence (whole entry): T1 sequence (P41587 whole entry)

[3] = biological target: T2, Vasoactive intestinal polypeptide receptor 2 (Homo sapiens); experiment: (§2) Antagonist activity at recombinant human N-terminal signal peptide/FLAG epitope-tagged VIPR2 expressed in HEK293 cells co-expressing CAMYEL assessed as inhibition of VIP-induced cAMP accumulation at 0.5 uM preincubated for 5 mins with luciferin, coelenterazine H followed by VIP addition measured after 5 mins by BRET assay relative to control; format: functional, cell-based
[4] = biological target: T2, Vasoactive intestinal polypeptide receptor 2 (Homo sapiens); experiment: as §2, with “5” for “0.5”; format: functional, cell-based
[5] = biological target: T2, Vasoactive intestinal polypeptide receptor 2 (Homo sapiens); experiment: as §1, with “binding at 5 uM” for “binding”, “assay relative to control” for “assay”; format: cell-based
[6] = biological target: T2, Vasoactive intestinal polypeptide receptor 2 (Homo sapiens); experiment: as §1, with “binding at 1 uM” for “binding”, “assay relative to control” for “assay”; format: cell-based
[7] = biological target: T2, Vasoactive intestinal polypeptide receptor 2 (Homo sapiens); experiment: as §2, with “1” for “0.5”; format: functional, cell-based
[8] = biological target: T2, Vasoactive intestinal polypeptide receptor 2 (Homo sapiens); experiment: as §2, with “[…]” for “HEK293”, “accumulation” for “accumulation at 0.5 uM”, “assay” for “assay relative to control”; format: functional, cell-based
[9] = biological target: T1, Vasoactive intestinal polypeptide receptor 2; experiment: Antagonist activity at human VIPR2 expressed in HEK293 cells assessed as inhibition of VIP-induced cAMP accumulation incubated for 30 mins by HTRF assay; format: functional, cell-based
[10] = biological target: T1, Vasoactive intestinal polypeptide receptor 2; experiment: Antagonist activity at human VIPR2 expressed in HEK293 cells assessed as inhibition of VIP-induced beta-arrestin 2 binding incubated for 2 hrs by beta-galactosidase assay; format: cell-based

Row | IC50 [1] | inhibition [2] | inhibition [3] | inhibition [4] | inhibition [5] | inhibition [6] | inhibition [7] | inhibition [8] | IC50 [9] | IC50 [10] | Compound
1 | 5 µM | 76.2% | – | – | – | – | – | – | – | – | CO[C@@H]1Cc2ccccc2[C@@H]1NC(=O)[C@H](Cc1ccccc1)C[C@H](O)CNS(=O)(=O)c1ccc(C(C)=O)cc1
2 | 1.13 to 45.8 µM | – | – | – | – | – | – | – | – | – | CCc1ccc(S(=O)(=O)NC[C@@H](O)C[C@@H](Cc2ccccc2)C(=O)N[C@H]2c3ccccc3C[C@H]2O)cc1
3 | – | 58.3 to 92.3% | 38.6% | 96% | 88.7% | 78% | 61.1% | Active | – | – | CC(=O)c1ccc(S(=O)(=O)NC[C@@H](O)C[C@@H](Cc2ccccc2)C(=O)N[C@H]2c3ccccc3C[C@H]2O)cc1
4 | – | 2.6 to 84.5% | 38.7 to 74.3% | 97.8 to 100% | 29.3 to 92% | -2.6 to 74.6% | 70.9 to 86.1% | – | 3.8 µM | 2.3 µM | O=C(N[C@H]1c2ccccc2C[C@H]1O)[C@H](Cc1ccccc1)C[C@H](O)CNS(=O)(=O)c1ccc([N+](=O)[O-])cc1
5 | 0.28 to 2.02 µM | – | – | – | – | – | – | – | – | – | O=C(N[C@H]1c2ccccc2C[C@H]1O)[C@H](Cc1ccccc1)C[C@H](O)CNS(=O)(=O)c1ccc(Cl)cc1
6 | 0.206 to 33.7 µM | – | – | – | – | – | – | – | – | – | O=C(N[C@H]1c2ccccc2C[C@H]1O)[C@H](Cc1ccccc1)C[C@H](O)CNS(=O)(=O)c1ccc2c(c1)OCCO2
7 | 1.18 to 1.98 µM | 62.3 to 94.1% | 42.2% | 98.2% | 90% | 80.4% | 63.5% | – | – | – | Cc1ccc(S(=O)(=O)NC[C@@H](O)C[C@@H](Cc2ccccc2)C(=O)N[C@H]2c3ccccc3C[C@H]2O)cc1
8 | 1800 µM | 13.4 to 26.8% | -1.5% | 6.2% | 20.7% | 20.4% | 0.6% | – | – | – | CCCCNC(=O)[C@@H](Cc1ccccc1)C[C@H](O)CNS(=O)(=O)c1ccc([N+](=O)[O-])cc1
9 | 4 µM | 13.3% | – | – | – | – | – | – | – | – | CO[C@@H]1Cc2ccccc2[C@@H]1NC(=O)[C@H](Cc1ccccc1)C[C@H](O)CNS(=O)(=O)c1ccc(Cl)cc1
10 | 6 µM | 28.1% | – | – | – | – | – | – | – | – | CO[C@H]1Cc2ccccc2[C@@H]1NC(=O)[C@H](Cc1ccccc1)C[C@H](O)CNS(=O)(=O)c1ccc2c(c1)OCCO2
11 | – | 3.55 to 9.4% | 5.4% | 7.3% | -0.2% | 7.2% | 7.8% | – | – | – | C#CCNC(=O)[C@H](Cc1ccccc1)C[C@H](O)CNS(=O)(=O)c1ccc([N+](=O)[O-])cc1
